{"source": "the supplement of paper PMC11208160"}
{"experiment": "recombinant barcode read abundance after kanamycin selection (control-corrected) (log10(CPM+1)); higher = more efficient recombination; sequences stand for … in AGTGCAGAGAAAATCGGCCAGTTTTCTCTGCCTGCAGTCCGCATGCCGT…AGATTTATGCAGCGGACTGCCTTTCTCCCAAAGTGATAAACCGGACAGTATCATGGACCGGTTTTCCCGGTAATCCGTATTTGCAAGGTTGGTTTCACT; site = the 11-nt target", "how_it_was_run": "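Recombination efficiency draws on barcodes counted at recombinant junctions in a pooled E. coli screen of targets paired with IS621 bridge RNA target-binding loops. The counts were converted to counts per million, averaged and corrected against the chloramphenicol/ampicillin LB agar control, then reported as log10(CPM+1). Selection plates held chloramphenicol/ampicillin/kanamycin with 0.1 mM IPTG, with two replicates per condition.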"}
{"sequence": "CGGGGTTCTTGGGTTCTAACCTGTTGCCT (site CAGGGTTCTAG)", "recombinant barcode read abundance (log10)": 0.321}
{"sequence": "CGGGGTTCTTGGGTTCTAACCTGTTGCCT (site CCGGGTTCTAG)", "recombinant barcode read abundance (log10)": 0.167}
{"sequence": "CGGGGTTCTTGGGTTCTAACCTGTTGCCT (site CGGGGTTCTAG)", "recombinant barcode read abundance (log10)": 2.43}
{"sequence": "CGGGGTTCTTGGGTTCTAACCTGTTGCCT (site CTGGGTTCTAG)", "recombinant barcode read abundance (log10)": 0.0823}
{"sequence": "CGGGTAACTTGGGTTCTAACCTGTTGCCT (site CGGGTAACTAG)", "recombinant barcode read abundance (log10)": 0.0693}
{"sequence": "CGGGTAACTTGGGTTCTAACCTGTTGCCT (site CTGGAAACTAG)", "recombinant barcode read abundance (log10)": 0.0897}
{"sequence": "CGGTAATCTTGGGTTCTAACCTGTTGCTT (site ACGTAATCTAA)", "recombinant barcode read abundance (log10)": 0.0734}
{"sequence": "CGGTAATCTTGGGTTCTAACCTGTTGCTT (site CGGTAATCTAA)", "recombinant barcode read abundance (log10)": 0.161}
{"sequence": "CGGTACACTTGGGTTCTAACCTGTTGCGG (site CGGAACACTCC)", "recombinant barcode read abundance (log10)": 0.862}
{"sequence": "CGGTACACTTGGGTTCTAACCTGTTGCGG (site CGGCACACTCC)", "recombinant barcode read abundance (log10)": 2.48}
{"sequence": "CGGTACACTTGGGTTCTAACCTGTTGCGG (site CGGGACACTCC)", "recombinant barcode read abundance (log10)": 0.78}
{"sequence": "CGGTACACTTGGGTTCTAACCTGTTGCGG (site CGGTACACTCC)", "recombinant barcode read abundance (log10)": 3.14}
{"sequence": "CGGTAGTCTTGGGTTCTAACCTGTTGCTG (site CGGTAGTCTAA)", "recombinant barcode read abundance (log10)": 0.0345}
{"sequence": "CGGTAGTCTTGGGTTCTAACCTGTTGCTG (site CGGTAGTCTCA)", "recombinant barcode read abundance (log10)": 1.08}
{"sequence": "CGGTGAACTTGGGTTCTAACCTGTTGCCT (site CAGTGAACTAG)", "recombinant barcode read abundance (log10)": 0.109}
{"sequence": "CGGTGAACTTGGGTTCTAACCTGTTGCCT (site CCGTGAACTAG)", "recombinant barcode read abundance (log10)": 0.148}
{"sequence": "CGGTGAACTTGGGTTCTAACCTGTTGCCT (site CGGTGAACTAG)", "recombinant barcode read abundance (log10)": 1.16}
{"sequence": "CGGTGAACTTGGGTTCTAACCTGTTGCCT (site CTGTGAACTAG)", "recombinant barcode read abundance (log10)": 0.146}
{"sequence": "CGTAAGCCTTGGGTTCTAACCTGTTGCAT (site CGCAAGCCTAT)", "recombinant barcode read abundance (log10)": 0.265}
{"sequence": "CGTAAGCCTTGGGTTCTAACCTGTTGCAT (site CGTAAGCCTAT)", "recombinant barcode read abundance (log10)": 0.57}
{"sequence": "CGTAGAGCTTGGGTTCTAACCTGTTGCCT (site AGTAGAACTAG)", "recombinant barcode read abundance (log10)": 0.0247}
{"sequence": "CGTAGAGCTTGGGTTCTAACCTGTTGCCT (site CGTAGAGCTAG)", "recombinant barcode read abundance (log10)": 0.349}
{"sequence": "CGTAGCTCTTGGGTTCTAACCTGTTGCCT (site CGAAGCTCTAG)", "recombinant barcode read abundance (log10)": 0.133}
{"sequence": "CGTAGCTCTTGGGTTCTAACCTGTTGCCT (site CGCAGCTCTAG)", "recombinant barcode read abundance (log10)": 0.128}
{"sequence": "CGTAGCTCTTGGGTTCTAACCTGTTGCCT (site CGGAGCTCTAG)", "recombinant barcode read abundance (log10)": 0.134}
{"sequence": "CGTAGCTCTTGGGTTCTAACCTGTTGCCT (site CGTAGCTCTAG)", "recombinant barcode read abundance (log10)": 0.516}
{"sequence": "CGTATCACTTGGGTTCTAACCTGTTGCCT (site CCGATCACTAG)", "recombinant barcode read abundance (log10)": 0.0447}
{"sequence": "CGTATCACTTGGGTTCTAACCTGTTGCCT (site CGTATCACTAG)", "recombinant barcode read abundance (log10)": 0.0527}
{"sequence": "CGTATGGCTTGGGTTCTAACCTGTTGCCT (site CGTATGGCTAG)", "recombinant barcode read abundance (log10)": 0.349}
{"sequence": "CGTATGGCTTGGGTTCTAACCTGTTGCCT (site CGTGGGGCTAG)", "recombinant barcode read abundance (log10)": 0.279}
{"sequence": "CGTCACCCTTGGGTTCTAACCTGTTGCCT (site CGTCAACCTAG)", "recombinant barcode read abundance (log10)": 0.0616}
{"sequence": "CGTCACCCTTGGGTTCTAACCTGTTGCCT (site CGTCACCCTAG)", "recombinant barcode read abundance (log10)": 0.173}
{"sequence": "CGTCACCCTTGGGTTCTAACCTGTTGCCT (site CGTCAGCCTAG)", "recombinant barcode read abundance (log10)": 0.12}
{"sequence": "CGTCACCCTTGGGTTCTAACCTGTTGCCT (site CGTCATCCTAG)", "recombinant barcode read abundance (log10)": 0.126}
{"sequence": "CGTCAGACTTGGGTTCTAACCTGTTGCCT (site CGTAAGACTAG)", "recombinant barcode read abundance (log10)": 0}
{"sequence": "CGTCAGACTTGGGTTCTAACCTGTTGCCT (site CGTCAGACTAG)", "recombinant barcode read abundance (log10)": 0.109}
{"sequence": "CGTCAGACTTGGGTTCTAACCTGTTGCCT (site CGTGAGACTAG)", "recombinant barcode read abundance (log10)": 0.212}
{"sequence": "CGTCAGACTTGGGTTCTAACCTGTTGCCT (site CGTTAGACTAG)", "recombinant barcode read abundance (log10)": 0}
{"sequence": "CGTCTACCTTGGGTTCTAACCTGTTGCTT (site AGTCTACCTAA)", "recombinant barcode read abundance (log10)": 0.297}
{"sequence": "CGTCTACCTTGGGTTCTAACCTGTTGCTT (site CGTCTACCTAA)", "recombinant barcode read abundance (log10)": 0.242}
{"sequence": "CGTCTCCCTTGGGTTCTAACCTGTTGCTT (site CGTATCCCTCA)", "recombinant barcode read abundance (log10)": 0.108}
{"sequence": "CGTCTCCCTTGGGTTCTAACCTGTTGCTT (site CGTCTCCCTAA)", "recombinant barcode read abundance (log10)": 0.162}
{"sequence": "CGTGAACCTTGGGTTCTAACCTGTTGCGT (site CGTAAACCTAC)", "recombinant barcode read abundance (log10)": 2.19}
{"sequence": "CGTGAACCTTGGGTTCTAACCTGTTGCGT (site CGTCAACCTAC)", "recombinant barcode read abundance (log10)": 0.34}
{"sequence": "CGTGAACCTTGGGTTCTAACCTGTTGCGT (site CGTGAACCTAC)", "recombinant barcode read abundance (log10)": 2.79}
{"sequence": "CGTGAACCTTGGGTTCTAACCTGTTGCGT (site CGTTAACCTAC)", "recombinant barcode read abundance (log10)": 0.751}
{"sequence": "CGTGCGGCTTGGGTTCTAACCTGTTGCCT (site AGTGCGGCTAG)", "recombinant barcode read abundance (log10)": 0.0463}
{"sequence": "CGTGCGGCTTGGGTTCTAACCTGTTGCCT (site CGTGCGGCTAG)", "recombinant barcode read abundance (log10)": 0.486}
{"sequence": "CGTGCGGCTTGGGTTCTAACCTGTTGCCT (site GGTGCGGCTAG)", "recombinant barcode read abundance (log10)": 0.946}
{"sequence": "CGTGCGGCTTGGGTTCTAACCTGTTGCCT (site TGTGCGGCTAG)", "recombinant barcode read abundance (log10)": 0.0337}
{"sequence": "CGTGCGTCTTGGGTTCTAACCTGTTGCCT (site AGTGCGTCTAG)", "recombinant barcode read abundance (log10)": 0.208}
{"sequence": "CGTGCGTCTTGGGTTCTAACCTGTTGCCT (site CGTGCGTCTAG)", "recombinant barcode read abundance (log10)": 0.918}
{"sequence": "CGTGCGTCTTGGGTTCTAACCTGTTGCCT (site GGTGCGTCTAG)", "recombinant barcode read abundance (log10)": 0.38}
{"sequence": "CGTGCGTCTTGGGTTCTAACCTGTTGCCT (site TGTGCGTCTAG)", "recombinant barcode read abundance (log10)": 0.0337}
{"sequence": "CGTGGGCCTTGGGTTCTAACCTGTTGCCT (site CATGGGCCTAG)", "recombinant barcode read abundance (log10)": 0.295}
{"sequence": "CGTGGGCCTTGGGTTCTAACCTGTTGCCT (site CCTGGGCCTAG)", "recombinant barcode read abundance (log10)": 0.208}
{"sequence": "CGTGGGCCTTGGGTTCTAACCTGTTGCCT (site CGTGGGCCTAG)", "recombinant barcode read abundance (log10)": 0.0583}
{"sequence": "CGTGGGCCTTGGGTTCTAACCTGTTGCCT (site CTTGGGCCTAG)", "recombinant barcode read abundance (log10)": 0.0694}
{"sequence": "CGTGGTCCTTGGGTTCTAACCTGTTGCCT (site CGTGGTCCTAA)", "recombinant barcode read abundance (log10)": 0.0142}
{"sequence": "CGTGGTCCTTGGGTTCTAACCTGTTGCCT (site CGTGGTCCTAC)", "recombinant barcode read abundance (log10)": 0.413}
{"sequence": "CGTGGTCCTTGGGTTCTAACCTGTTGCCT (site CGTGGTCCTAG)", "recombinant barcode read abundance (log10)": 1.26}
{"sequence": "CGTGGTCCTTGGGTTCTAACCTGTTGCCT (site CGTGGTCCTAT)", "recombinant barcode read abundance (log10)": 0.657}
{"sequence": "CGTTAACCTTGGGTTCTAACCTGTTGCGT (site CGTAAACCTAC)", "recombinant barcode read abundance (log10)": 0.423}
{"sequence": "CGTTAACCTTGGGTTCTAACCTGTTGCGT (site CGTCAACCTAC)", "recombinant barcode read abundance (log10)": 1.48}
{"sequence": "CGTTAACCTTGGGTTCTAACCTGTTGCGT (site CGTGAACCTAC)", "recombinant barcode read abundance (log10)": 0.177}
{"sequence": "CGTTAACCTTGGGTTCTAACCTGTTGCGT (site CGTTAACCTAC)", "recombinant barcode read abundance (log10)": 1.37}
{"sequence": "CGTTAGACTTGGGTTCTAACCTGTTGCCT (site CGTAAGACTAG)", "recombinant barcode read abundance (log10)": 0.113}
{"sequence": "CGTTAGACTTGGGTTCTAACCTGTTGCCT (site CGTCAGACTAG)", "recombinant barcode read abundance (log10)": 0.267}
{"sequence": "CGTTAGACTTGGGTTCTAACCTGTTGCCT (site CGTGAGACTAG)", "recombinant barcode read abundance (log10)": 0.147}
{"sequence": "CGTTAGACTTGGGTTCTAACCTGTTGCCT (site CGTTAGACTAG)", "recombinant barcode read abundance (log10)": 0.469}
{"sequence": "CGTTCAACTTGGGTTCTAACCTGTTGCCT (site CGTTCAACTAG)", "recombinant barcode read abundance (log10)": 0.0537}
{"sequence": "CGTTCAACTTGGGTTCTAACCTGTTGCCT (site CGTTCCACTAG)", "recombinant barcode read abundance (log10)": 0.0618}
{"sequence": "CGTTCAACTTGGGTTCTAACCTGTTGCCT (site CGTTCGACTAG)", "recombinant barcode read abundance (log10)": 0.153}
{"sequence": "CGTTCAACTTGGGTTCTAACCTGTTGCCT (site CGTTCTACTAG)", "recombinant barcode read abundance (log10)": 0.0864}
{"sequence": "CGTTCATCTTGGGTTCTAACCTGTTGCCT (site CGATCATCTAG)", "recombinant barcode read abundance (log10)": 0}
{"sequence": "CGTTCATCTTGGGTTCTAACCTGTTGCCT (site CGCTCATCTAG)", "recombinant barcode read abundance (log10)": 0.0301}
{"sequence": "CGTTCATCTTGGGTTCTAACCTGTTGCCT (site CGGTCATCTAG)", "recombinant barcode read abundance (log10)": 0.0446}
{"sequence": "CGTTCATCTTGGGTTCTAACCTGTTGCCT (site CGTTCATCTAG)", "recombinant barcode read abundance (log10)": 0.0763}
{"sequence": "CGTTCTACTTGGGTTCTAACCTGTTGCCT (site CGTTCAACTAG)", "recombinant barcode read abundance (log10)": 0.0719}
{"sequence": "CGTTCTACTTGGGTTCTAACCTGTTGCCT (site CGTTCCACTAG)", "recombinant barcode read abundance (log10)": 0.286}
{"sequence": "CGTTCTACTTGGGTTCTAACCTGTTGCCT (site CGTTCGACTAG)", "recombinant barcode read abundance (log10)": 0.0414}
{"sequence": "CGTTCTACTTGGGTTCTAACCTGTTGCCT (site CGTTCTACTAG)", "recombinant barcode read abundance (log10)": 0.00743}
{"sequence": "CGTTGATCTTGGGTTCTAACCTGTTGCCT (site CGTTGATCTAG)", "recombinant barcode read abundance (log10)": 0.234}
{"sequence": "CGTTGATCTTGGGTTCTAACCTGTTGCCT (site CGTTGTTCTAG)", "recombinant barcode read abundance (log10)": 0.0674}
{"sequence": "CGTTGTCCTTGGGTTCTAACCTGTTGCAA (site CCTTGTCCTCT)", "recombinant barcode read abundance (log10)": 0.00991}
{"sequence": "CGTTGTCCTTGGGTTCTAACCTGTTGCAA (site CGTTGTCCTTT)", "recombinant barcode read abundance (log10)": 0.347}
